From patent EP0505468B1, “IMIDAZOLE DERIVATIVES AND THEIR USE AS ACYL COENZYME-A INHIBITORS” (RHONE-POULENC SANTE, priority 1989, dated 1991)

Experiments:
[1] = tested on: acyl coenzyme-A:cholesterol-O-acyl transferase (ACAT;EC 2.3.1.26); test: In vitro ACAT inhibition in rat liver microsomes incubated with radiolabelled oleoyl-CoA; type: biochemical
Procedure: In assays performed in vitro, microsomes (prepared from the livers of rats fed a diet supplemented with 0.5%w/w cholesterol and 0.25%w/w cholic acid for 7 days) were incubated with radiolabelled oleoyl-CoA in the presence of compounds according to the invention at a concentration (in »g/m1) as shown in Table 1.

[2] = tested on: plasma cholesterol level; test: In vivo inhibition of the increase in plasma cholesterol level in cholesterol/cholic acid-fed rats; settings: increase in plasma cholesterol level measured after 3 days, relative to control animals on cholesterol supplemented diet; for inhibition in vivo at 0.03 % strength / inhibition in vivo at 0.01 % strength: Rattus norvegicus, feed or water, 72 h, read-out: In-vivo % Reduction; for inhibition in vivo at 0.03 % strength / In-vivo % Reduction: dose 0.03 %w/w in diet; for inhibition in vivo at 0.01 % strength: dose 0.01 %w/w in diet
[3] = concentration 0.5 »g/m1, microsomes from livers of rats fed 0.5%w/w cholesterol and 0.25%w/w cholic acid for 7 days
[4] = concentration 1.0 »g/m1, microsomes from livers of rats fed 0.5%w/w cholesterol and 0.25%w/w cholic acid for 7 days

In-vitro % Inhibition [1, 3] [%] | SMILES | further results
90 | Cn1ccnc1S(=O)(=O)CCCSc1nc(-c2ccccc2)c(-c2ccccc2)[nH]1 [Compound H, 2-[3-(1-Methylimidazol-2-ylsulphonyl)propylthio]-4,5-diphenylimidazole] | inhibition in vivo at 0.03 % strength [2]: 108%
91 | Cn1ccnc1SCCCCCCCCCSc1nc(-c2ccccc2)c(-c2ccccc2)[nH]1 [Compound T, 2-[9-(1-Methylimidazol-2-ylthio)nonylthio]-4,5-diphenylimidazole] | 
84 | Cn1nnnc1SCCCSc1nc(-c2ccccc2)c(-c2ccccc2)[nH]1 [J, 2-[3-(1-Methyltetrazol-5-ylthio)propylthio]-4,5-diphenylimidazole] | inhibition in vivo at 0.01 % strength [2]: 17%
93 | Cn1ccnc1SCCCSc1nc(-c2ccccc2)c(-c2ccccc2)[nH]1 [C, 2-[3-(1-Methylimidazol-2-ylthio)propylthio]-4,5-diphenylimidazole] | In-vivo % Reduction [2]: 66%
94 | Cn1ccnc1SCCCCSc1nc(-c2ccccc2)c(-c2ccccc2)[nH]1 [N, 2-[4-(1-Methylimidazol-2-ylthio)butylthio]-4,5-diphenylimidazole] | inhibition in vivo at 0.03 % strength [2]: 98%
97 | c1ccc(-c2nc(SCCCCSc3nc(-c4ccccc4)c(-c4ccccc4)[nH]3)[nH]c2-c2ccccc2)cc1 [P, 1,4-Bis(4,5-diphenylimidazol-2-ylthio)butane] | 
90 | c1ccc(-c2nc(SCCCSc3ccncc3)[nH]c2-c2ccccc2)cc1 [Compound B, 2-[3-(Pyrid-4-ylthio)propylthio]-4,5-diphenylimidazole] | inhibition in vivo at 0.03 % strength [2]: 91%
84 | Cn1cnnc1SCCCSc1nc(-c2ccccc2)c(-c2ccccc2)[nH]1 [Compound I, 2-[3-(4-Methyl-1,2,4-triazol-3-ylthio)propylthio]-4,5-diphenylimidazole] | inhibition in vivo at 0.01 % strength [2]: 5%

More lines, now with the values behind:

SMILES | In-vitro % Inhibition [1, 3] [%] | further results
c1ccc(-c2nc(SCCCCCCCCCSc3nc(-c4ccccc4)c(-c4ccccc4)[nH]3)[nH]c2-c2ccccc2)cc1 [Compound S, 1,9-Bis(4,5-diphenylimidazol-2-ylthio)nonane] | 77 | 
Cc1cc(C)nc(SCCCSc2nc(-c3ccccc3)c(-c3ccccc3)[nH]2)n1 [Compound G, 2-[3-(4,6-Dimethylpyrimidin-2-ylthio)propylthio]-4,5-diphenylimidazole] | 80 | 
c1ccc(-c2nc(SCCCSc3ncccn3)[nH]c2-c2ccccc2)cc1 [A, 2-[3-(Pyrimidin-2-ylthio)propylthio]-4,5-diphenylimidazole] | 88 | inhibition in vivo at 0.03 % strength [2]: 7%
C(=C\CSc1nc(-c2ccccc2)c(-c2ccccc2)[nH]1)/CSc1nc(-c2ccccc2)c(-c2ccccc2)[nH]1 [Q, E-1,4-Bis(4,5-diphenylimidazol-2-ylthio)but-2-ene] | 98 | inhibition in vivo at 0.01 % strength [2]: 74%
Cn1ccnc1S(=O)(=O)CCCCS(=O)(=O)c1nc(-c2ccccc2)c(-c2ccccc2)[nH]1 [Compound O, 2-[4-(1-Methylimidazol-2-ylsulphonyl)butylsulphonyl]-4,5-diphenylimidazole] | 23 | 
Cl.Cl.Cn1ccnc1SCCCSc1nc(-c2ccccc2)c(-c2ccccc2)[nH]1 [Compound D, 2-[3-(1-Methylimidazol-2-ylthio)propylthio]-4,5-diphenylimidazole dihydrochloride] |  | In-vivo % Reduction [2]: 88%
c1ccc(-c2nc(SCCCSc3ncc[nH]3)[nH]c2-c2ccccc2)cc1 [M, 2-[3-(Imidazol-2-ylthio)propylthio]-4,5-diphenylimidazole] | 95 | inhibition in vivo at 0.01 % strength [2]: 107%
Cl.Cl.c1ccc(-c2nc(SCCCSc3nc(-c4ccccn4)c(-c4ccccn4)[nH]3)[nH]c2-c2ccccc2)cc1 [Compound K, 1-(4,5-Diphenylimidazol-2-ylthio)-3-[(4,5-dipyrid-2-yl)imidazol-2-ylthio]propane dihydrochloride] | 77 | inhibition in vivo at 0.01 % strength [2]: 4%
Cn1nnnc1S(=O)(=O)CCCSc1nc(-c2ccccc2)c(-c2ccccc2)[nH]1 [Compound L, 2-[3-(1-Methyltetrazol-5-ylsulphonyl)propylthio]-4,5-diphenylimidazole] | 19 | 
c1ccc(-c2nc(SCCCSc3nc(-c4ccccc4)c(-c4ccccc4)[nH]3)[nH]c2-c2ccccc2)cc1 [F, 1,3-Bis(4,5-diphenylimidazol-2-ylthio)propane] |  | In-vitro % Inhibition [1, 4]: 96%; inhibition in vivo at 0.03 % strength [2]: 72%
c1ccc(-c2nc(SCCSc3nc(-c4ccccc4)c(-c4ccccc4)[nH]3)[nH]c2-c2ccccc2)cc1 [E, 1,2-Bis(4,5-diphenylimidazol-2-ylthio)ethane] |  | In-vitro % Inhibition [1, 4]: 88%
Cn1ccnc1SCCCCCCSc1nc(-c2ccccc2)c(-c2ccccc2)[nH]1 [Compound R, 2-[6-(1-Methylimidazol-2-ylthio)hexylthio]-4,5-diphenylimidazole] | 95 | 
